# From US20260345596A1, “TREATMENT OF LOCALLY ADVANCED OR METASTATIC UROTHELIAL CARCINOMA WITH ERDAFINITIB” (priority 2023, published 2026)
# Values joined by “and” are separate entries in the source; they are usually repeats but may differ in a detail not shown here. Equal entries are not always repeated. Marks after values point to notes of the source that are not given here.
# Test: Study BLC3001 (NCT03390504, THOR) Cohort 1: safety, adverse events, laboratory abnormalities and exposure
# [1] = adverse events leading to death
# [2] = any grade, adverse events of interest
# [3] = any grade, serious adverse events, any cause
# [4] = grade 3-4 adverse events of interest
# [5] = leading to treatment discontinuation
compound,measurement,setting,value
"COc1cc(OC)cc(N(CCNC(C)C)c2ccc3ncc(-c4cnn(C)c4)nc3c2)c1 [Erdafitinib, N-(3,5-dimethoxyphenyl)-N′-(1-methylethyl)-N-[3-(1-methyl-1H-pyrazol-4-yl)quinoxalin-6-yl]ethane-1,2-diamine]",Aspartate aminotransferase increased,"Grade ≥3, treatment-related",2 (1.5) no. (%)
same,Asthenia,"Grade ≥3, treatment-related",0 no. (%)
same,Constipation,"Grade ≥3, treatment-related",0 no. (%)
same,Decreased appetite,"Grade ≥3, treatment-related",3 (2.2) no. (%)
same,Diarrhea,"Grade ≥3, treatment-related",4 (3.0) no. (%)
same,Dry eye,"Grade ≥3, treatment-related",0 no. (%)
same,Dry mouth,"Grade ≥3, treatment-related",0 no. (%)
same,Dry skin,"Grade ≥3, treatment-related",2 (1.5) no. (%)
same,Dysgeusia,"Grade ≥3, treatment-related",1 (0.7) no. (%)
same,Fatigue,"Grade ≥3, treatment-related",0 no. (%)
same,Hyperphosphatemia,"Grade ≥3, treatment-related",7 (5.2) no. (%)
same,Nausea,"Grade ≥3, treatment-related",1 (0.7) no. (%)
same,Neutropenia,"Grade ≥3, treatment-related",0 no. (%)
same,Onycholysis,"Grade ≥3, treatment-related",8 (5.9) no. (%)
same,Onychomadesis,"Grade ≥3, treatment-related",2 (1.5) no. (%)
same,Palmar-plantar erythrodysesthesia syndrome,"Grade ≥3, treatment-related",13 (9.6) no. (%)
same,Stomatitis,"Grade ≥3, treatment-related",11 (8.1) no. (%)
same,Atypical pneumonia,[1],0 no. (%)
same,Cardiorespiratory arrest,[1],1 (0.7) no. (%)
same,Febrile bone marrow aplasia,[1],0 no. (%)
same,Febrile neutropenia,[1],0 no. (%)
same,Pneumonia necrotizing,[1],1 (0.7) no. (%)
same,Renal failure,[1],1 (0.7) no. (%)
same,Septic shock,[1],0 no. (%)
same,Sudden death,[1],2 (1.5) no. (%)
same,Adverse events leading to treatment discontinuation,any cause,19 (14.1%) no. (%) and 19 (14.1) no. (%)
same,Central serous retinopathy,any grade,23 (17.0%) n (%) and 23 (17.0) n (%)
same,Eye disorders (excluding central serous retinopathy),any grade,57 (42.2) n (%)
same,Nail disorders,any grade,90 (66.7) n (%)
same,Skin disorders,any grade,74 (54.8) n (%)
same,Central serous retinopathy,[2],23 (17.0) no. (%)
same,Chorioretinopathy,[2],8 (5.9) no. (%)
same,Detachment of macular retinal pigment epithelium,[2],1 (0.7) no. (%)
same,Detachment of retinal pigment epithelium,[2],7 (5.2) no. (%)
same,Eye disorders (excluding central serous retinopathy),[2],57 (42.2) no. (%)
same,Macular detachment,[2],2 (1.5) no. (%)
same,Nail disorders,[2],90 (66.7) no. (%)
same,Retinopathy,[2],2 (1.5) no. (%)
same,Skin disorders,[2],74 (54.8) no. (%)
same,Subretinal fluid,[2],5 (3.7) no. (%)
same,Hematuria,[3],5 (3.7) no. (%)
same,Hyponatremia,[3],3 (2.2) no. (%)
same,Urinary tract infection,[3],6 (4.4) no. (%)
same,Neutropenia,"any grade, treatment-emergent",0 no.
same,Alanine aminotransferase increased,"any grade, treatment-related",29 (21.5) no. (%)
same,Alopecia,"any grade, treatment-related",32 (23.7) no. (%)
same,Anemia,"any grade, treatment-related",16 (11.9) no. (%)
same,Aspartate aminotransferase increased,"any grade, treatment-related",25 (18.5) no. (%)
same,Asthenia,"any grade, treatment-related",11 (8.1) no. (%)
same,Constipation,"any grade, treatment-related",12 (8.9) no. (%)
same,Decreased appetite,"any grade, treatment-related",28 (20.7) no. (%)
same,Diarrhea,"any grade, treatment-related",74 (54.8) no. (%)
same,Dry eye,"any grade, treatment-related",22 (16.3) no. (%)
same,Dry mouth,"any grade, treatment-related",52 (38.5) no. (%)
same,Dry skin,"any grade, treatment-related",30 (22.2) no. (%)
same,Dysgeusia,"any grade, treatment-related",34 (25.2) no. (%)
same,Fatigue,"any grade, treatment-related",18 (13.3) no. (%)
same,Hyperphosphatemia,"any grade, treatment-related",106 (78.5) no. (%)
same,Nausea,"any grade, treatment-related",14 (10.4) no. (%)
same,Neutropenia,"any grade, treatment-related",0 no. (%)
same,Onycholysis,"any grade, treatment-related",31 (23.0) no. (%)
same,Onychomadesis,"any grade, treatment-related",27 (20.0) no. (%)
same,Palmar-plantar erythrodysesthesia syndrome,"any grade, treatment-related",41 (30.4) no. (%)
same,Stomatitis,"any grade, treatment-related",62 (45.9) no. (%)
same,Treatment-related deaths,count,1
same,Central serous retinopathy,grade 3-4,3 (2.2) n (%)
same,Eye disorders (excluding central serous retinopathy),grade 3-4,3 (2.2) n (%)
same,Nail disorders,grade 3-4,15 (11.1) n (%)
same,Skin disorders,grade 3-4,16 (11.9) n (%)
same,Central serous retinopathy,[4],2.2%
same,Nail disorders,[4],11.1%
same,Skin disorders,[4],11.9%
same,Onycholysis,"grade ≥3, treatment-related",5.9%
same,Palmar-plantar erythrodysesthesia syndrome,"grade ≥3, treatment-related",9.6%
same,Stomatitis,"grade ≥3, treatment-related",8.1%
same,Treatment-emergent adverse events that led to death,in vivo,4.4%
same,Treatment-related serious adverse events,in vivo,13.3%
same,Treatment-related adverse events that led to death,investigator-assessed,0.7%
same,Anemia,[5],0 no. (%)
same,Any patient with one or more adverse events leading to treatment discontinuation,[5],19 (14.1) no. (%)
same,Atypical pneumonia,[5],0 no. (%)
same,COVID-19,[5],1 (0.7) no. (%)
same,Cardiorespiratory arrest,[5],1 (0.7) no. (%)
same,Detachment of retinal pigment epithelium,[5],1 (0.7) no. (%)
same,Diarrhea,[5],0 no. (%)
same,Dry skin,[5],1 (0.7) no. (%)
same,Dysphagia,[5],1 (0.7) no. (%)
same,Dyspnea,[5],0 no. (%)
same,Edema peripheral,[5],0 no. (%)
same,Extremity necrosis,[5],1 (0.7) no. (%)
same,Febrile bone marrow aplasia,[5],0 no. (%)
same,Febrile neutropenia,[5],0 no. (%)
same,Fractured sacrum,[5],0 no. (%)
same,Hematuria,[5],1 (0.7) no. (%)
same,Hyponatremia,[5],0 no. (%)
same,Hypotension,[5],1 (0.7) no. (%)
same,Ileus,[5],0 no. (%)
same,Keratitis,[5],1 (0.7) no. (%)
same,Nail dystrophy,[5],1 (0.7) no. (%)
same,Onycholysis,[5],2 (1.5) no. (%)
same,Paronychia,[5],1 (0.7) no. (%)
same,Peripheral sensory neuropathy,[5],0 no. (%)
same,Pneumonia necrotizing,[5],1 (0.7) no. (%)
same,Pneumonitis,[5],0 no. (%)
same,Renal failure,[5],1 (0.7) no. (%)
same,Sciatica,[5],0 no. (%)
same,Septic shock,[5],0 no. (%)
same,Sudden death,[5],2 (1.5) no. (%)
same,Syncope,[5],0 no. (%)
same,Urinary retention,[5],1 (0.7) no. (%)
same,Vision blurred,[5],1 (0.7) no. (%)
same,Vomiting,[5],0 no. (%)
same,Adverse events leading to dose interruption,safety population,97 (71.9) no. (%)
same,Adverse events leading to dose reduction,safety population,93 (68.9) no. (%)
same,Adverse events of any cause,safety population,98.5%
same,Any adverse events (treatment-emergent),safety population,133 (98.5%) no. (%) and 133 (98.5) no. (%)
same,COVID-19-related adverse events,safety population,12 (8.9) no. (%)
same,COVID-19-related serious adverse events,safety population,1 (0.7) no. (%)
same,Grade 3-4 serious adverse events,safety population,52 (38.5) no. (%)
same,Grade 3-4 treatment-related adverse events,safety population,45.9%
same,"Related adverse events (≥1 treatment-related AE, any grade)",safety population,131 (97.0) no. (%)
same,Related adverse events leading to death,safety population,1 (0.7) no. (%)
same,Related adverse events leading to dose interruption,safety population,89 (65.9) no. (%)
same,Related adverse events leading to dose reduction,safety population,89 (65.9) no. (%)
same,Related adverse events leading to treatment discontinuation,safety population,11 (8.1%)^b no. (%) and 11 (8.1) no. (%)
same,Related grade 3-4 adverse events,safety population,62 (45.9) no. (%)
same,Related grade 3-4 serious adverse events,safety population,16 (11.9) no. (%)
same,Related serious adverse events,safety population,18 (13.3) no. (%)
same,Adverse events leading to death,treatment-emergent,6 (4.4%) no. (%) and 6 (4.4) no. (%)
same,Grade 3-4 adverse events,treatment-emergent,85 (63.0%) no. (%) and 85 (63.0) no. (%)
same,Serious adverse events,treatment-emergent,56 (41.5%) no. (%) and 56 (41.5) no. (%)
same,Clinically important TEAEs,"treatment-emergent, any grade",125 (92.6%) n (%)
same,Eye disorders leading to discontinuation,treatment-related AEs,^bMost frequent treatment-related AEs leading to discontinuation of erdafitinib included eye disorders (3 patients) and skin and subcutaneous disorders (3 patients).
same,Diarrhea,"treatment-related, any grade",74 (54.8) n (%)
same,Dry mouth,"treatment-related, any grade",52 (38.5) n (%)
same,Hyperphosphatemia,"treatment-related, any grade",106 (78.5) n (%)
same,Onycholysis,"treatment-related, any grade",31 (23.0) n (%)
same,PPE syndrome,"treatment-related, any grade",41 (30.4) n (%)
same,Stomatitis,"treatment-related, any grade",62 (45.9) n (%)
same,Diarrhea,"treatment-related, grade 3-4",4 (3.0) n (%)
same,Dry mouth,"treatment-related, grade 3-4",0 n (%)
same,Hyperphosphatemia,"treatment-related, grade 3-4",7 (5.2) n (%)
same,Onycholysis,"treatment-related, grade 3-4",8 (5.9) n (%)
same,PPE syndrome,"treatment-related, grade 3-4",13 (9.6) n (%)
same,Stomatitis,"treatment-related, grade 3-4",11 (8.1) n (%)
same,Lowering of discontinuation due to treatment-related adverse events,versus chemotherapy,about 5.3%
